Results taken from US10633394B2, “Heterocyclic derivatives and use thereof” (C & C RESEARCH LABORATORIES, priority 2014, dated 2020).

How the values were obtained:
Assay type in all cases: cell-based
[1] = target: T1, STAT3 (Homo sapiens, UniProt P40763); test: STAT3 reporter gene (luciferase) assay in LNCaP stable cell line stimulated with IL-6; settings: LNCaP stable cell line (pSTAT3-TA-luc), IL-6 10 ng/mL, 24 hours
T1 construct: plasmid pSTAT3-TA-luc), which contains a stably operating STAT3 promoter; endogenous in cells
Protocol: 1-1) Experiment on the Inhibition of STAT3 Activity
A human prostate cancer cell line (LNCaP stable cell line; plasmid pSTAT3-TA-luc), which contains a stably operating STAT3 promoter, was cultured in RPMI1640 medium (Cat No. 11875, Life Technologies) containing 10% fetal bovine serum (FBS) (Cat No. SH30396, Thermo Scientific) and 150 μg/mL G-418 solution (Cat No. 04 727 894 001, Roche). The reporter gene assay using LNCaP stable cell line was performed in RPMI1640 medium containing 3% DCC-FBS without G-418 solution. LNCaP stable cells were plated in two (2) white 96-well plates with 30,000 cells/50 μL in each well. The cells were cultured at 37° C., under 5% CO2 for 24 hours, and then treated with the compounds listed in Examples which were diluted in various concentrations. Subsequently, IL-6 was added to each well with a final concentration of 10 ng/mL. Upon completion of the treatment with the compounds and IL-6, the cells were cultured at 37° C., under 5% CO2 for 24 hours. The plates were observed under microscope and drug precipitation and particular findings were investigated and recorded.
The luciferase assay and the cell viability assay were performed respectively with one of the two plates. For the luciferase assay, the liquid media in the 96-well plate was removed, and then, 20 μL of passive cell lysis buffer was added to each well. After shaking the plate for 30 minutes, luciferase activities of each well were measured in a PHERAstar™ microplate reader (BMG LABTECH) using a luciferase assay system (Cat No. E1501, Promega). For the cell viability assay, the 96-well plate was placed at room temperature for 30 minutes, added with 20 μL/well of CellTiter-Glo solution (Cat No. G7573, Promega), and shaken for 10 minutes in order to measure cytotoxicity caused by the compounds listed in Examples with a PHERAstar™ microplate reader (BMG LABTECH). Wells without 0.1% DMSO and stimulation were used as a negative control and wells with 0.1% DMSO and stimulation were used as a positive control.
The results of evaluation on the inhibitory effect of the compounds listed in the Examples on the dimerization of STAT3 and STAT1 obtained via the STAT3 and STAT1 reporter gene assays are shown in Table 6 below.

[2] = system: NCI-N87; test: Cell growth inhibition assay (CellTiter-Glo), stomach cancer cell line NCI-N87; settings: Homo sapiens; NCI-N87 cells, 96 hours
Protocol: (§1) The inhibitory effects of the compounds of the present invention against the growth of cancer cells were evaluated as shown below. The cancer cell lines including stomach cancer cell line (NCI-N87) and breast cancer cell line (MDA-MB-468) were cultured under the protocol provided by each supplier. Each type of cells to be used in experiments was sub-cultured in a 96-well plate by counting the exact number of cells using Tali™ Image-based Cytometer (Life Technologies). In a 96-well plate, NCI-N87 was employed with 5,000 cells/well; and MDA-MB-468 was employed with 10,000 cells/well. The cells were treated with the compounds listed in Examples which were diluted in various concentrations. Upon completion of the compounds treatment, NCI-N87 cells were cultured at 37° C. under 5% CO2 for 96 hours, and MDA-MB-468 cells were cultured at 37° C. in air for 96 hours. Subsequently, the cells were observed under microscope and drug precipitation and particular findings were investigated and recorded. And then, the 96-well plate was placed at room temperature for 30 minutes, added with 20 μL/well of CellTiter-Glo solution (Cat No. G7573, Promega) and shaken for 10 minutes, followed by being subjected to the measurement using PHERAstar™ microplate reader (BMG LABTECH) according to the supplier's general luminometer protocol. Wells where only culture liquid added without cell plating were used as a negative control, whereas wells where culture liquid containing 0.1% DMSO instead of the compounds listed in Examples were used as a positive control.

[3] = system: MDA-MB-468; test: Cell growth inhibition assay (CellTiter-Glo), breast cancer cell line MDA-MB-468; settings: Homo sapiens; MDA-MB-468 cells, 96 hours
Protocol: as §1

T1 sequence (P40763 whole entry): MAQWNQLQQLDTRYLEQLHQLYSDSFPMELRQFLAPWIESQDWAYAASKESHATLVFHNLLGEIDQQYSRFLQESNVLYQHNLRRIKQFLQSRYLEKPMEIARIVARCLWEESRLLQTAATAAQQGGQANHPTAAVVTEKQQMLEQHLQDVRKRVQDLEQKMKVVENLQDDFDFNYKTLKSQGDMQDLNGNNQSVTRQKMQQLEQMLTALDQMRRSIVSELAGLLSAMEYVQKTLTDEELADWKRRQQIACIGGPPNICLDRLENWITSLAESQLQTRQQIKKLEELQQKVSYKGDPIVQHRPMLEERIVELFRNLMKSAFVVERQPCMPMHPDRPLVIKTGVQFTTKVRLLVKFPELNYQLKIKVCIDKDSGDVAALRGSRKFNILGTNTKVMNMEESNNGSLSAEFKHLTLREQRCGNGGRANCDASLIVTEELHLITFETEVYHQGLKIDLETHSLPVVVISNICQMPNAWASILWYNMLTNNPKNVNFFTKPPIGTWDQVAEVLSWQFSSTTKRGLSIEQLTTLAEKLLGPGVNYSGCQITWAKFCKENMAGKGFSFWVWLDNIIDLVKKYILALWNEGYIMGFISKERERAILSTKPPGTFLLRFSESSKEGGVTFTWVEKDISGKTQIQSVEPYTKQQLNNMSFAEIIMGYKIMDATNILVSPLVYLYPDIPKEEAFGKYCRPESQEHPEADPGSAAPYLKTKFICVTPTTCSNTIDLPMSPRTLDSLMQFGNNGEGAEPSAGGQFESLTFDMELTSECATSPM

Row | SMILES | IC50 [1] | IC50 [2] | IC50 [3]
1 | CC1(C)CCN(S(C)(=O)=O)c2cc3cc(C(=O)Nc4cc(Cl)nc(Oc5ccc(Cl)cc5)c4)sc3cc21 [Example 4, N-(2-chloro-6-(4-chlorophenoxy)pyridin-4-yl)-8,8-dimethyl-5-(methylsulfonyl)-5,6,7,8-tetrahydrothieno[2,3-g]quinoline-2-carboxamide] | 0.93 µM | 4.1 µM | –
2 | CN1CCN(S(C)(=O)=O)c2cc3cc(C(=O)Nc4cc(Cl)nc(Oc5ccc(Cl)cc5)c4)sc3cc21 [Example 7, N-(2-chloro-6-(4-chlorophenoxy)pyridin-4-yl)-4-methyl-1-(methylsulfonyl)-1,2,3,4-tetrahydrothieno[2,3-g]quinoxaline-7-carboxamide] | 0.012 µM | 0.027 µM | 0.0065 µM
3 | [N-]=[N+]=NC1CCOc2cc3sc(C(=O)Nc4cc(Cl)nc(Oc5ccc(Cl)cc5)c4)cc3cc21 (stereo not drawn) [Example 55, 4-azido-N-(2-chloro-6-(4-chlorophenoxy)pyridin-4-yl)-3,4-dihydro-2H-thieno[3,2-g]chromene-7-carboxamide] | 0.039 µM | 1.2 µM | 0.078 µM
4 | CS(=O)(=O)C1CCCc2cc3sc(C(=O)Nc4cc(Cl)nc(Oc5ccc(Cl)cc5)c4)cc3cc21 (stereo not drawn) [Example 10, N-(2-chloro-6-(4-chlorophenoxy)pyridin-4-yl)-5-(methylsulfonyl)-5,6,7,8-tetrahydronaphtho[2,3-b]thiophene-2-carboxamide] | 0.0026 µM | 0.006 µM | 0.0019 µM
5 | C[C@@]1(S(C)(=O)=O)CCOc2cc3sc(C(=O)Nc4cc(Cl)nc(Oc5ccc(Cl)cc5)c4)cc3cc21 [Example 48, (R)—N-(2-chloro-6-(4-chlorophenoxy)pyridin-4-yl)-4-methyl-4-(methylsulfonyl)-3,4-dihydro-2H-thieno[3,2-g]chromene-7-carboxamide] | 0.15 µM | 0.79 µM | > 0.1 µM
6 | CC(C)(c1ccc(Cl)cc1)c1cc(Cl)cc(NC(=O)c2cc3cc4c(cc3s2)OCCN4S(C)(=O)=O)c1 [Example 56, N-(3-chloro-5-(2-(4-chlorophenyl)propan-2-yl)phenyl)-1-(methylsulfonyl)-2,3-dihydro-1H-thieno[3′,2′:4,5]benzo[1,2-b][1,4]oxazine-7-carboxamide] | 0.0028 µM | 0.019 µM | –
7 | CS(=O)(=O)N1CCCc2cc3sc(C(=O)Nc4cc(Cl)nc(Oc5ccc(Cl)cc5)c4)cc3cc21 [Example 6, N-(2-chloro-6-(4-chlorophenoxy)pyridin-4-yl)-5-(methylsulfonyl)-5,6,7,8-tetrahydrothieno[2,3-g]quinoline-2-carboxamide] | 0.003 µM | 0.0055 µM | –
8 | CS(=O)(=O)N1CCNc2cc3sc(C(=O)Nc4cc(Cl)nc(Oc5ccc(Cl)cc5)c4)cc3cc21 [Example 50, N-(2-chloro-6-(4-chlorophenoxy)pyridin-4-yl)-1-(methylsulfonyl)-1,2,3,4-tetrahydrothieno[2,3-g]quinoxaline-7-carboxamide] | 0.0082 µM | 0.0091 µM | –
9 | CC1(C)CN(S(C)(=O)=O)c2cc3cc(C(=O)Nc4cc(Cl)nc(Oc5ccc(Cl)cc5)c4)sc3cc2O1 [Example 2, N-(2-chloro-6-(4-chlorophenoxy)pyridin-4-yl)-3,3-dimethyl-1-(methylsulfonyl)-2,3-dihydro-1H-thieno[3′,2′:4,5]benzo[1,2-b][1,4]oxazine-7-carboxamide] | 0.17 µM | 1.2 µM | –
10 | CS(=O)(=O)N1CCOc2cc3sc(C(=O)Nc4cc(Cl)nc(Oc5ccc(Cl)cc5)c4)cc3cc21 [Example 1, N-(2-chloro-6-(4-chlorophenoxy)pyridin-4-yl)-1-(methylsulfonyl)-2,3-dihydro-1H-thieno[3′,2′:4,5]benzo[1,2-b][1,4]oxazine-7-carboxamide] | 0.0026 µM | 0.0083 µM | –
11 | CS(=O)(=O)N1CCCOc2cc3sc(C(=O)Nc4cc(Cl)nc(Oc5ccc(Cl)cc5)c4)cc3cc21 [Example 3, N-(2-chloro-6-(4-chlorophenoxy)pyridin-4-yl)-1-(methylsulfonyl)-1,2,3,4-tetrahydrothieno[3′,2′:4,5]benzo[1,2-b][1,4]oxazepine-8-carboxamide] | 0.01 µM | 0.045 µM | –

Results, then the compound that gave them:

Row | IC50 [1] | IC50 [2] | IC50 [3] | SMILES
12 | 0.016 µM | 0.031 µM | 0.0089 µM | COc1cc(F)cc(Oc2cc(NC(=O)c3cc4cc5c(cc4s3)OCCC5S(C)(=O)=O)cc(Cl)n2)c1 (stereo not drawn) [Example 32, N-(2-chloro-6-(3-fluoro-5-methoxyphenoxy)pyridin-4-yl)-4-(methylsulfonyl)-3,4-dihydro-2H-thieno[3,2-g]chromene-7-carboxamide]
13 | 0.0087 µM | 0.023 µM | 0.0086 µM | CS(=O)(=O)C1CCOc2cc3sc(C(=O)Nc4cc(Cl)nc(Oc5ccccc5OC(F)(F)F)c4)cc3cc21 (stereo not drawn) [Example 40, N-(2-chloro-6-(2-(trifluoromethoxy)phenoxy)pyridin-4-yl)-4-(methylsulfonyl)-3,4-dihydro-2H-thieno[3,2-g]chromene-7-carboxamide]
14 | 0.023 µM | 0.024 µM | 0.0078 µM | COc1cc(Cl)ccc1Oc1cc(NC(=O)c2cc3cc4c(cc3s2)OCCC4S(C)(=O)=O)cc(Cl)n1 (stereo not drawn) [Example 42, N-(2-chloro-6-(4-chloro-2-methoxyphenoxy)pyridin-4-yl)-4-(methylsulfonyl)-3,4-dihydro-2H-thieno[3,2-g]chromene-7-carboxamide]
15 | 0.1 µM | 0.2 µM | 0.05 µM | CS(=O)(=O)C1CCC(=O)c2cc3sc(C(=O)Nc4cc(Cl)nc(Oc5ccc(Cl)cc5)c4)cc3cc21 (stereo not drawn) [Example 51, N-(2-chloro-6-(4-chlorophenoxy)pyridin-4-yl)-5-(methylsulfonyl)-8-oxo-5,6,7,8-tetrahydronaphtho[2,3-b]thiophene-2-carboxamide]
16 | 0.024 µM | 0.031 µM | 0.0032 µM | CS(=O)(=O)C1CCOc2cc3sc(C(=O)Nc4cc(Cl)nc(Oc5ccc(Cl)cc5)c4)cc3cc21 (racemic) [Example 8, N-(2-chloro-6-(4-chlorophenoxy)pyridin-4-yl)-4-(methylsulfonyl)-3,4-dihydro-2H-thieno[3,2-g]chromene-7-carboxamide]
17 | 0.0088 µM | – | – | Cc1ccc(Oc2cc(NC(=O)c3cc4cc5c(cc4s3)OCCC5S(C)(=O)=O)cc(Cl)n2)cc1Cl (stereo not drawn) [Example 38, N-(2-chloro-6-(3-chloro-4-methylphenoxy)pyridin-4-yl)-4-(methylsulfonyl)-3,4-dihydro-2H-thieno[3,2-g]chromene-7-carboxamide]
18 | 0.014 µM | – | – | CS(=O)(=O)C1CCOc2cc3sc(C(=O)Nc4cc(Cl)nc(Oc5cccc(Cl)c5F)c4)cc3cc21 (stereo not drawn) [Example 36, N-(2-chloro-6-(3-chloro-2-fluorophenoxy)pyridin-4-yl)-4-(methylsulfonyl)-3,4-dihydro-2H-thieno[3,2-g]chromene-7-carboxamide]
19 | 0.014 µM | – | – | CS(=O)(=O)C1CCOc2cc3sc(C(=O)Nc4cc(Cl)nc(Oc5ccccc5C(F)(F)F)c4)cc3cc21 (stereo not drawn) [Example 39, N-(2-chloro-6-(2-(trifluoromethyl)phenoxy)pyridin-4-yl)-4-(methylsulfonyl)-3,4-dihydro-2H-thieno[3,2-g]chromene-7-carboxamide]
20 | 0.01 µM | – | – | CS(=O)(=O)C1CCOc2cc3sc(C(=O)Nc4cc(Cl)nc(Oc5cc(Cl)ccc5F)c4)cc3cc21 (stereo not drawn) [Example 35, N-(2-chloro-6-(5-chloro-2-fluorophenoxy)pyridin-4-yl)-4-(methylsulfonyl)-3,4-dihydro-2H-thieno[3,2-g]chromene-7-carboxamide]
